target: Human recombinant PDE4 (Genbank accession no NM—006203) (Homo sapiens, UniProt Q08499); assay: PDE4 assay (SPA, cAMP cleavage); assay type: biochemical; conditions: Example 53; PDE4 assay as in example 52; read-out: PDE4 IC50 range
Method: At the end of the incubation, the cleavage of the substrate was evaluated by the binding of the AMP product to SPA beads, which generate chemoluminescence when bound to the radioactive tracer. The AMP product inhibited the binding of the radioactive tracer to the beads, and the luminescent signal was competed.

Chain of Human recombinant PDE4 (Genbank accession no NM—006203) (Q08499 1-673 isoform Q08499-2): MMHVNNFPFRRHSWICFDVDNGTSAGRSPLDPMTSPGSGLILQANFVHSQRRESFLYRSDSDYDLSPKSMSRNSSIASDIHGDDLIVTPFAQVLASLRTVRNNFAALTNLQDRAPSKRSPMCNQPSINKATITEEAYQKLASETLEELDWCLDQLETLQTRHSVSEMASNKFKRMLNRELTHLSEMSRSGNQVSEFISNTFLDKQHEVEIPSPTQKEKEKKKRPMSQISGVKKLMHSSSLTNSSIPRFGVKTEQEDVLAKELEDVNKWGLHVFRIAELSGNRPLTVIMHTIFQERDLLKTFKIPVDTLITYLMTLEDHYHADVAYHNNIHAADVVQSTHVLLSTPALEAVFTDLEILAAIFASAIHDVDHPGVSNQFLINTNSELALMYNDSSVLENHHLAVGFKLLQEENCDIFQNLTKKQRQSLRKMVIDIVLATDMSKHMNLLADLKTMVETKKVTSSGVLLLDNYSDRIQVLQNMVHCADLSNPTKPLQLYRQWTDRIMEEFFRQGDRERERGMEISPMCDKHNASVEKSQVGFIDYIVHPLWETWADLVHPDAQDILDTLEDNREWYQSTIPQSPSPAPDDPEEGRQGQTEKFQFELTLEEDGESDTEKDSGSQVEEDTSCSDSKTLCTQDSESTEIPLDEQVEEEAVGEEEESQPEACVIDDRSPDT

Q: `CCOC(=O)C1(c2nc3c(OC)ccc(-c4ccc(C#N)cc4)n3n2)CC1` [Compound 146, 1-[5-(4-Cyano-phenyl)-8-methoxy-[1,2,4]triazolo[1,5-a]pyridin-2-yl]-cyclopropanecarboxylic acid ethyl ester] was tested. Which IC50 did it give?
A: 500 to 1000 nM

Q: For `COc1ccc(-c2ccc(C#N)cc2)n2nc(C3(C(=O)O)CC3)nc12` [Compound 147, 1-[5-(4-Cyano-phenyl)-8-methoxy-[1,2,4]triazolo[1,5-a]pyridin-2-yl]-cyclopropanecarboxylic acid], which IC50 is on record?
A: > 1000 nM

Q: `COc1ccc(-c2ccc(C#N)cc2)n2nc(C3(C(N)=O)CC3)nc12` [Compound 148, 1-[5-(4-Cyano-phenyl)-8-methoxy-[1,2,4]triazolo[1,5-a]pyridin-2-yl]-cyclopropanecarboxylic acid amide] was tested. Which IC50 did it give?
A: < 500 nM

Q: `COc1ccc(-c2cncc(C#N)c2)n2nc(C3(C(=O)NC(C)C)CC3)nc12` [Compound 149, 1-[5-(5-Cyano-pyridin-3-yl)-8-methoxy-[1,2,4]triazolo[1,5-a]pyridin-2-yl]-cyclopropanecarboxylic acid isopropylamide] was tested. Which IC50 did it give?
A: < 500 nM

Q: With `COc1ccc(-c2cccc(C#N)c2)n2nc(C3(COC(=O)N4CCCC4)CC3)nc12` [Compound 151, Pyrrolidine-1-carboxylic acid 1-[5-(3-cyano-phenyl)-8-methoxy-[1,2,4]triazolo[1,5-a]pyridin-2-yl]-cyclopropylmethyl ester] as the compound, how does the IC50 read?
A: < 500 nM

Q: With `COc1ccc(-c2cccc(C#N)c2)n2nc(C3(COC(=O)NC(C)C)CC3)nc12` [Compound 152, Isopropyl-carbamic acid 1-[5-(3-cyano-phenyl)-8-methoxy-[1,2,4]triazolo[1,5-a]pyridin-2-yl]-cyclopropylmethyl ester] as the compound, how does the IC50 read?
A: < 500 nM

Q: For `COc1ccc(-c2cccc(C#N)c2)n2nc(C3(COCc4ccccc4)CC3)nc12` [Compound 153, 3-[2-(1-Benzyloxymethyl-cyclopropyl)-8-methoxy-[1,2,4]-triazolo[1,5-a]pyridin-5-yl]-benzonitrile], which IC50 is on record?
A: < 500 nM

Q: With `COc1ccc(-c2cccc(C#N)c2)n2nc(C3(CNC(=O)C(C)C)CC3)nc12` [Compound 154, N-{1-[5-(3-Cyano-phenyl)-8-methoxy-[1,2,4]triazolo[1,5-a]pyridin-2-yl]-cyclopropylmethyl}-isobutyramide] as the compound, how does the IC50 read?
A: < 500 nM

Q: How did the IC50 turn out when `COc1ccc(-c2cccc(C#N)c2)n2nc(C3(CNC(=O)OC4CCCC4)CC3)nc12` [Compound 155, {1-[5-(3-Cyano-phenyl)-8-methoxyl-[1,2,4]triazolo[1,5-a]pyridin-2-yl]-cyclopropylmethyl}-carbamic acid cyclopentyl ester] was run?
A: < 500 nM

Q: How did the IC50 turn out when `COc1ccc(-c2cccc(C#N)c2)n2nc(C3(CNC(=O)N4CCCC4)CC3)nc12` [Compound 156, Pyrrolidine-1-carboxylic acid {1-[5-(3-cyano-phenyl)-8-methoxy-[1,2,4]triazolo[1,5-a]pyridin-2-yl]-cyclopropylmethyl}-amide] was run?
A: < 500 nM

Q: `COc1ccc(C2=NNC(=O)CC2C)n2nc(C3CC3)nc12` (stereo not shown) [Compound 158, 6-(2-Cyclopropyl-8-methoxyl-[1,2,4]triazolo[1,5-a]pyridin-5-yl)-5-methyl-4,5-dihydro-2H-pyridazin-3-one] was tested. Which IC50 did it give?
A: 500 to 1000 nM

Q: With `COc1ccc(-c2cncc(C#N)c2)n2nc(C3CC3)nc12` [Compound 159, 5-(2-Cyclopropyl-8-methoxy-[1,2,4]triazolo[1,5-a]pyridin-5-yl)-nicotinonitrile] as the compound, how does the IC50 read?
A: < 500 nM

Q: For `COc1ccc(-c2ccc(C#N)c(C)c2)n2nc(C3CC3)nc12` [Compound 161, 4-(2-Cyclopropyl-8-methoxyl-[1,2,4]triazolo[1,5-a]pyridin-5-yl)-2-methyl-benzonitrile], which IC50 is on record?
A: < 500 nM

Q: How did the IC50 turn out when `COc1ccc(-c2cc(F)cc(C#N)c2)n2nc(C3CC3)nc12` [Compound 164, 3-(2-Cyclopropyl-8-methoxy-[1,2,4]triazolo[1,5-a]pyridin-5-yl)-5-fluoro-benzonitrile] was run?
A: < 500 nM

Q: With `COc1ccc(-c2ccc(C#N)c(F)c2)n2nc(C3CC3)nc12` [Compound 165, 4-(2-Cyclopropyl-8-methoxyl-[1,2,4]-triazolo[1,5-a]pyridin-5-yl)-2-fluoro-benzonitrile] as the compound, how does the IC50 read?
A: < 500 nM

Q: How did the IC50 turn out when `COc1cc(-c2ccc(OC)c3nc(C4CC4)nn23)ccc1C#N` [Compound 166, 4-(2-Cyclopropyl-8-methoxy-[1,2,4]triazolo[1,5-a]pyridin-5-yl)-2-methoxy-benzonitrile] was run?
A: < 500 nM

Q: For `COc1ccc(-c2cc(C#N)cc(CO)c2)n2nc(C3CC3)nc12` [Compound 168, 3-(2-Cyclopropyl-8-methoxy-[1,2,4]triazolo[1,5-a]pyridin-5-yl)-5-hydroxymethyl-benzonitrile], which IC50 is on record?
A: < 500 nM

Q: With `COc1cc(C#N)cc(-c2ccc(OC)c3nc(C4CC4)nn23)c1` [Compound 169, 3-(2-Cyclopropyl-8-methoxy-[1,2,4]triazolo[1,5-a]pyridin-5-yl)-5-methoxy-benzonitrile] as the compound, how does the IC50 read?
A: < 500 nM

Q: With `COc1ccc(-c2ccc3c(c2)CNC3=O)n2nc(C3CC3)nc12` [Compound 171, 5-(2-Cyclopropyl-8-methoxy-[1,2,4]triazolo[1,5-a]pyridin-5-yl)-2,3-dihydro-isoindol-1-one] as the compound, how does the IC50 read?
A: < 500 nM

Q: `COc1ccc(-c2cccc3c2CCC3=O)n2nc(C3(C(=O)NCc4ccccc4)CC3)nc12` [Compound 172, 1-[8-Methoxy-5-(1-oxo-indan-4-yl)-[1,2,4]triazolo[1,5-a]pyridin-2-yl]-cyclopropanecarboxylic acid benzylamide] was tested. Which IC50 did it give?
A: < 500 nM

Q: Which IC50 does the source give for `COc1ccc(-c2cncc(C#N)c2)n2nc(C3(C(=O)NCc4ccccc4)CC3)nc12` [Compound 173, 1-[5-(5-Cyano-pyridin-3-yl)-8-methoxy-[1,2,4]triazolo[1,5-a]pyridin-2-yl]-cyclopropanecarboxylic acid benzylamide] here?
A: < 500 nM

Q: For `COc1cc(-c2ccc(OC)c3nc(C4(C(=O)NCC5CCCCC5)CC4)nn23)ccc1C#N` [Compound 174, 1-[5-(4-Cyano-3-methoxy-phenyl)-8-methoxy-[1,2,4]triazolo[1,5-a]pyridin-2-yl]-cyclopropanecarboxylic acid cyclohexylmethyl-amide], which IC50 is on record?
A: < 500 nM

Q: How did the IC50 turn out when `COc1cc(-c2ccc(OC)c3nc(C4(C(=O)NC(C)C)CC4)nn23)ccc1C#N` [Compound 175, 1-[5-(4-Cyano-3-methoxy-phenyl)-8-methoxy-[1,2,4]triazolo[1,5-a]pyridin-2-yl]-cyclopropanecarboxylic acid isopropylamide] was run?
A: < 500 nM

Q: Which IC50 does the source give for `COc1ccc(-c2cccc3c2CCC3=O)n2nc(C3(C(=O)NCC4CCCCC4)CC3)nc12` [Compound 176, 1-[8-Methoxy-5-(1-oxo-indan-4-yl)-[1,2,4]triazolo[1,5-a]pyridin-2-yl]-cyclopropanecarboxylic acid cyclohexylmethyl-amide] here?
A: < 500 nM

Q: For `COc1cc(-c2ccc(OC)c3nc(C4(C(=O)NCCS(C)(=O)=O)CC4)nn23)ccc1C#N` [Compound 177, 1-[5-(4-Cyano-3-methoxy-phenyl)-8-methoxy-[1,2,4]triazolo[1,5-a]pyridin-2-yl]-cyclopropanecarboxylic acid (2-methanesulfonyl-ethyl)-amide], which IC50 is on record?
A: < 500 nM

Q: `COc1cc(-c2ccc(OC)c3nc(C4(C(=O)NCc5ccccc5)CC4)nn23)ccc1C#N` [Compound 178, 1-[5-(4-Cyano-3-methoxy-phenyl)-8-methoxy-[1,2,4]triazolo[1,5-a]pyridin-2-yl]-cyclopropanecarboxylic acid benzylamide] was tested. Which IC50 did it give?
A: < 500 nM

Q: Which IC50 does the source give for `COc1ccc(-c2ccc3c(c2)COC3=O)n2nc(C3(C(=O)NCc4ccccc4)CC3)nc12` [Compound 179, 1-[8-Methoxy-5-(1-oxo-1,3-dihydro-isobenzofuran-5-yl)-[1,2,4]triazolo[1,5-a]pyridin-2-yl]-cyclopropanecarboxylic acid benzylamide] here?
A: < 500 nM

Q: Which IC50 does the source give for `COc1ccc(-c2cccc3c2CCC3=O)n2nc(C3(C(=O)NC(C)C)CC3)nc12` [Compound 180, 1-[8-Methoxy-5-(1-oxo-indan-4-yl)-[1,2,4]triazolo[1,5-a]pyridin-2-yl]-cyclopropanecarboxylic acid isopropylamide] here?
A: < 500 nM

Q: `COc1ccc(-c2ccc3c(c2)CCC3=O)n2nc(C3(C(=O)NC(C)C)CC3)nc12` [Compound 181, 1-[8-Methoxy-5-(1-oxo-indan-5-yl)-[1,2,4]triazolo[1,5-a]pyridin-2-yl]-cyclopropanecarboxylic acid isopropylamide] was tested. Which IC50 did it give?
A: < 500 nM

Q: How did the IC50 turn out when `COc1ccc(-c2ccc3c(c2)CCC3=O)n2nc(C3(C(=O)NCc4ccccc4)CC3)nc12` [Compound 182, 1-[8-Methoxy-5-(1-oxo-indan-5-yl)-[1,2,4]triazolo[1,5-a]pyridin-2-yl]-cyclopropanecarboxylic acid benzylamide] was run?
A: < 500 nM

Q: `COc1ccc(-c2cccc3c2CCC3=O)n2nc(C3(C(=O)NCCS(C)(=O)=O)CC3)nc12` [Compound 183, 1-[8-Methoxy-5-(1-oxo-indan-4-yl)-[1,2,4]triazolo[1,5-a]pyridin-2-yl]-cyclopropanecarboxylic acid (2-methanesulfonyl-ethyl)-amide] was tested. Which IC50 did it give?
A: < 500 nM

Q: With `COc1ccc(-c2ccc3c(c2)CCC3=O)n2nc(C3(C(=O)NCCS(C)(=O)=O)CC3)nc12` [Compound 184, 1-[8-Methoxy-5-(1-oxo-indan-5-yl)-[1,2,4]triazolo[1,5-a]pyridin-2-yl]-cyclopropanecarboxylic acid (2-methanesulfonyl-ethyl)-amide] as the compound, how does the IC50 read?
A: < 500 nM

Q: How did the IC50 turn out when `COc1ccc(-c2cncc(C#N)c2)n2nc(C3(C(=O)NCC4CCCCC4)CC3)nc12` [Compound 185, 1-[5-(5-Cyano-pyridin-3-yl)-8-methoxy-[1,2,4]triazolo[1,5-a]pyridin-2-yl]-cyclopropanecarboxylic acid cyclohexylmethyl-amide] was run?
A: < 500 nM

Q: With `COc1ccc(-c2cncc(C#N)c2)n2nc(C3(C(=O)NCCS(C)(=O)=O)CC3)nc12` [Compound 186, 1-[5-(5-Cyano-pyridin-3-yl)-8-methoxy-[1,2,4]triazolo[1,5-a]pyridin-2-yl]-cyclopropanecarboxylic acid (2-methanesulfonyl-ethyl)-amide] as the compound, how does the IC50 read?
A: < 500 nM

Reference: patent publication US8952162B2, “Triazolopyridines as phosphodiesterase inhibitors for treatment of dermal diseases” (Leo Pharma A/S, priority 2008, dated 2015)
